Measured values taken from patent US6794388B2, “Succinic acid salts of 5,7,14-triazatetracyclo[10.3.1.02,11.04,9] -hexadeca-1(11),3,5,7,9-pentaene and pharmaceutical compositions thereof” (Pfizer Inc., priority 2001, dated 2004).
Where a name gives a salt, the structure may show the parent alone.

Experiments:
Type in all cases: physicochemical
aqueous solubility = assay: aqueous solubility
Method: (§1) Although in general the acid addition salts of 5,8,14-triazatetracyclo[10.3.1.0^2,11.0^4,9]-hexadeca-2(11),3,5,7,9-pentaene are all crystalline, the majority of those salts are so hygroscopic as to render them poor candidates for pharmaceutical formulation use.
(§2) The aqueous solubility of the anhydrous succinate salt has been measured under various conditions: >10 mg/mL in pH 4 buffer; >10 mg/mL in pH 10 buffer; >10 mg/mL in 0.1 N HCl; and >10 mg/mL in 0.1 N NaOH. The solubility of the anhydrous succinate salt has also been measured in various solvents: >10 mg/mL in methanol; 0.1 mg/mL in acetonitrile and <0.01 mg/mL in hexane. The hygroscopicity of the anhydrous succinate salt has also been measured under various conditions: 0.0% moisture gain at 20% Relative Humidity; 0.3% moisture gain at 40% Relative Humidity; 0.6% moisture gain at 60% Relative Humidity; 0.9% moisture gain at 80% Relative Humidity and 1.3% moisture gain at 95% Relative Humidity.

[1] = solubility in various solvents; conditions: organic solvent or mixture
Method: as §2

[2] = hygroscopicity (moisture gain on exposure to relative humidity in a moisture chamber)
Method: as §1, §2

[3] = solid state stability (light, elevated temperature, high humidity challenges); conditions: elevated temperatures
Excerpt: as §1

[4] = native pH in aqueous solution

solubility (aqueous solubility; aqueous buffer, in 0.1 N NaOH): > 10000 µg/mL
solubility (aqueous solubility; aqueous buffer, in pH 4 buffer): > 10000 µg/mL
solubility (aqueous solubility; aqueous buffer, in pH 10 buffer): > 10000 µg/mL
solubility (aqueous solubility; simulated gastric fluid, in 0.1 N HCl): > 10000 µg/mL
solubility (aqueous solubility; water): 442000 µg/mL
solubility ([1]; in acetonitrile): 100 µg/mL
solubility ([1]; in hexane): < 10 µg/mL
solubility ([1]; in methanol): > 10000 µg/mL
hygroscopicity, moisture gain ([2]; at 20% Relative Humidity): 0.0%
hygroscopicity, moisture gain ([2]; at 40% Relative Humidity): 0.3%
hygroscopicity, moisture gain ([2]; at 60% Relative Humidity): 0.6%
hygroscopicity, moisture gain ([2]; at 80% Relative Humidity): 0.9%
hygroscopicity ([2]; at 90% relative humidity): approximately 1.97%
hygroscopicity, moisture gain ([2]; at 95% Relative Humidity): 1.3%
hygroscopicity ([2]; exposure to 90% relative humidity in a moisture chamber): approximately 1.97 % wt/wt
solid state stability [3]: excellent solid state stability
native pH in aqueous solution [4]: 4.7
Compound: c1cnc2cc3c(cc2n1)C1CNCC3C1 [anhydrous succinate salt, Anhydrous Succinate Salt of 5,8,14-Triazatetracyclo[10.3.1.0^2,11.0^4,9]-hexadeca-2(11),3,5,7,9-pentaene]
